From ChEMBL document CHEMBL1201862, “PubChem BioAssay data set” (2004) come the findings set out here.

What all share (assay): NCI tumour cell line growth inhibition, 48 h
The test system of experiment [1] is Malme-3M.
For experiment [2], the system named is M14.
Experiment [3] has as its system UACC-62.
The subject of experiment [4] is SF-539.
For experiment [5], the system named is SW-620.
The subject of experiment [6] is A498.
Experiment [7] concerns UACC-257.
Experiment [8] concerns SK-OV-3.
The test system of experiment [9] is HOP-92.
In experiment [10] the test system is SK-MEL-5.
The test system of experiment [11] is NCI-H522.
Experiment [12] relates to CAKI-1.
Experiment [13] has as its system OVCAR-4.
Experiment [14] deals with SN12C.
Experiment [15] concerns HCT-116.
In experiment [16] the test system is SNB-75.

Molecules are shown by their SMILES.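 96-well plates; 48 h exposure; 5 concentrations. Endpoints by linear interpolation between flanking doses. Not reached: highest tested concentration assigned. Abbreviation: GI50, concentration required for 50% inhibition of growth.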 Active and inactive are the calls of the source. Cut-off read from the data, not from the text of the source: active = GI50 up to about 1.1 µM and inactive = higher. Some results are limits rather than exact numbers.

Take `Clc1cc2nsnc2c(Cl)n1`: the GI50 in experiment [1] was 16.3 µM (inactive); in [2], 15.2 µM (inactive); in [3], 26.5 µM (inactive); in experiment [4], 22.9 µM (inactive); in [5] it was 10.2 µM (inactive); in experiment [6], > 100 µM (inactive). The GI50 in experiment [7] is 26.7 µM (inactive); in [8], 2.62 µM (inactive); in experiment [9] it was 16.6 µM (inactive); in experiment [10] it was 16.9 µM (inactive); in experiment [11], 18.4 µM (inactive); in experiment [12] it was 10.8 µM (inactive). Also, the GI50 in experiment [13] was 17.1 µM (inactive).

Regarding `COc1ccc(N(CC(=O)O)S(=O)(=O)c2ccccc2)cc1`, the GI50 in [1], in experiment [2], in experiment [3], in [4], in experiment [5] and in experiment [6] was > 100 µM (inactive) each time. For the same compound, the GI50 in [7], in [8], in [9], in [10], in experiment [11] and in experiment [12] was > 100 µM (inactive) each time. Besides, the GI50 in experiment [13] and in experiment [14] was > 100 µM (inactive) throughout.

Turning to `Cc1c2ccncc2c(C)c2c1[nH]c1ccccc12` [ELLIPTECINE], the GI50 is 2.01 µM (inactive) in experiment [1]; 1.48 µM (inactive) in experiment [3]; 0.867 µM (active) in experiment [4]; 0.36 µM (active) in [5]; 0.794 µM (active) in experiment [6]; 1.42 µM (inactive) in [7]. Further, the GI50 in experiment [15] is 0.272 µM (active); in experiment [8], 1.61 µM (inactive); in experiment [9] it was 0.538 µM (active); in [10], 0.944 µM (active); in experiment [11], 1.16 µM (inactive); in [12], 1.21 µM (inactive). For the same compound, the figures for the GI50 in experiment [16], in experiment [13] and in experiment [14] were 1.47 µM (inactive), 0.802 µM (active) and 1.06 µM (active), respectively.

Regarding `CC(C)CCCC(C)[C@H]1CCC(C2C[C@@H](O)[C@@H]3CC(O)[C@@H](O)C[C@]3(CO)C2=O)[C@]1(C)CCO` (stereo partly drawn), the GI50 was 23.1 µM (inactive) in experiment [1]; 19.2 µM (inactive) in experiment [3]; 20.9 µM (inactive) in [4]; 23.4 µM (inactive) in experiment [5]; 25.6 µM (inactive) in experiment [6]; 20 µM (inactive) in experiment [7]. Further, the GI50 was 20 µM (inactive) in experiment [15]; 25.8 µM (inactive) in [8]; 14.2 µM (inactive) in experiment [10]; 26.3 µM (inactive) in [11]; 20.4 µM (inactive) in experiment [16]; 30.6 µM (inactive) in experiment [13]. Besides, the GI50 in [14] is 30.2 µM (inactive).

For the compound `Cc1cc(N(CCC#N)CCC#N)ccc1/C=C(\NC(=O)/C=C/c1ccccc1)C(=O)Nc1ccccc1Cl`, the GI50 in experiment [1], in experiment [2], in experiment [3], in experiment [4], in experiment [5] and in experiment [6] was > 100 µM (inactive) throughout. Moreover, the GI50 in [7] is > 100 µM (inactive); in [15] it was > 100 µM (inactive); in experiment [9], 29.2 µM (inactive); in experiment [10], > 100 µM (inactive); in experiment [12], 78.7 µM (inactive); in [13], > 100 µM (inactive). Moreover, in [14], the GI50 is > 100 µM (inactive).

Turning to `CC(C)c1oc(=O)cc2c1C(O)C1OC(=O)C3(C)C(O)C4OC4C2(C)C13` (stereo not drawn) [NAGILACTONE], the GI50 in [1] is 1.69 µM (inactive); in [3], 1.38 µM (inactive); in experiment [4], 0.989 µM (active); in experiment [5], 1.45 µM (inactive); in experiment [6], 0.569 µM (active); in experiment [7], 1.83 µM (inactive). In addition, the GI50 in experiment [15] was 1.09 µM (active); in experiment [8], 5.2 µM (inactive); in experiment [9] it was 0.7 µM (active); in experiment [10], 0.628 µM (active); in [11], 1.15 µM (inactive); in experiment [12], 2.08 µM (inactive). Moreover, the GI50 in [16] was 1.92 µM (inactive); in [13], 2.12 µM (inactive); in [14], 1.31 µM (inactive).

For `CCn1c(=O)c(C(=O)O)c(Cl)c2cc3c(cc21)OCO3`, the GI50 in experiment [1], in [3], in [4], in experiment [5], in experiment [6] and in [7] was > 100 µM (inactive) throughout. For the same compound, the GI50 in experiment [15], in experiment [8], in [9], in experiment [10], in [11] and in experiment [12] was > 100 µM (inactive) each time. The GI50 in experiment [16], in experiment [13] and in experiment [14] was > 100 µM (inactive) each time.

On to `OCC1OC(n2cnc3c2NC=NC[C@H]3O)C(O)C1O` (stereo partly drawn), for which the GI50 is > 355 µM (inactive) in experiment [1]; > 450 µM (inactive) in [3]; > 450 µM (inactive) in experiment [4]; 317 µM (inactive) in experiment [5]; 208 µM (inactive) in [6]; > 450 µM (inactive) in [7]. Further, the GI50 was 260 µM (inactive) in experiment [15]; 234 µM (inactive) in experiment [8]; > 192 µM (inactive) in [9]; > 71.3 µM (inactive) in experiment [10]; 312 µM (inactive) in experiment [11]; 226 µM (inactive) in experiment [12]. Also, the GI50 in [16] was 412 µM (inactive); in experiment [13] it was > 450 µM (inactive); in experiment [14], 293 µM (inactive).

`CC1CC(C)(O)C2C3(C)CCCC2(COC3=O)C12CCC1(CCOC1=O)O2` (stereo not drawn): the GI50 in experiment [1] is > 250 µM (inactive); in [3], > 250 µM (inactive); in [4], > 250 µM (inactive); in experiment [5], > 250 µM (inactive); in [6], > 163 µM (inactive); in experiment [7] it was > 250 µM (inactive). Besides, the GI50 in experiment [15], in experiment [8], in [9], in [10], in experiment [11] and in experiment [12] was > 250 µM (inactive) throughout. For the same compound, the GI50 in experiment [16], in experiment [13] and in [14] was > 250 µM (inactive) each time.

For `CCOC(=O)C1S/C(=N\c2ccc(Cl)cc2Cl)N=C1C` (stereo not drawn), the GI50 in experiment [1] is 76.7 µM (inactive); in [2] it was 81.8 µM (inactive); in experiment [3], 46.9 µM (inactive); in experiment [4], 53 µM (inactive); in [5] it was > 100 µM (inactive); in [6] it was 39.3 µM (inactive). Moreover, the GI50 is 88.3 µM (inactive) in experiment [7]; 65.6 µM (inactive) in experiment [15]; 20.6 µM (inactive) in [9]; 48.6 µM (inactive) in experiment [10]; 35.9 µM (inactive) in experiment [11]; 66.2 µM (inactive) in [12]. In addition, the values for the GI50 in experiment [16], in [13] and in experiment [14] were 26.1 µM (inactive), 20.8 µM (inactive) and > 100 µM (inactive), respectively.
